Experiments:
[1] = molecular target: T1, Myotonin-protein kinase (Homo sapiens) (UniProt Q09013); experiment: DMPK1 SGC Tm panel (DSF); conditions: for ΔTm: Compound concentration 10.0 uM
T1 sequence (whole entry): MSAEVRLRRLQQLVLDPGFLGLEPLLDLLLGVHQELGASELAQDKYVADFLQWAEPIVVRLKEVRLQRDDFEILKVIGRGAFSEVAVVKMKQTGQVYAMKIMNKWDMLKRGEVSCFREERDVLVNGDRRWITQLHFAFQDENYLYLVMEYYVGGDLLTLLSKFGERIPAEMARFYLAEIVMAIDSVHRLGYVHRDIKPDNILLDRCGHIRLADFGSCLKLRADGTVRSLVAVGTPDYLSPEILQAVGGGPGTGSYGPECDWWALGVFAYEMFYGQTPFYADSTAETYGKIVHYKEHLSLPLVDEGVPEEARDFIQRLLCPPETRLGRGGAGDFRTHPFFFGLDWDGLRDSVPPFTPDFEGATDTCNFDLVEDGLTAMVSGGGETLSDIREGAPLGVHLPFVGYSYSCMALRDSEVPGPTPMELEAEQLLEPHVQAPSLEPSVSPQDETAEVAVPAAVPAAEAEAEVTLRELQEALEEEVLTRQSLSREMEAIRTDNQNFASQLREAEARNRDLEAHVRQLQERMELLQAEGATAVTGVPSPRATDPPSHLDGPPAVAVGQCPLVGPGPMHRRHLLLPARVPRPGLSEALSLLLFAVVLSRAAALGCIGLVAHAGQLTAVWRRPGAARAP

[2] = molecular target: T2, Dual specificity protein kinase TTK (Homo sapiens) (UniProt P33981); experiment: TTK SGC Tm panel (DSF); conditions: for ΔTm: Compound concentration 10.0 uM
T2 sequence (whole entry): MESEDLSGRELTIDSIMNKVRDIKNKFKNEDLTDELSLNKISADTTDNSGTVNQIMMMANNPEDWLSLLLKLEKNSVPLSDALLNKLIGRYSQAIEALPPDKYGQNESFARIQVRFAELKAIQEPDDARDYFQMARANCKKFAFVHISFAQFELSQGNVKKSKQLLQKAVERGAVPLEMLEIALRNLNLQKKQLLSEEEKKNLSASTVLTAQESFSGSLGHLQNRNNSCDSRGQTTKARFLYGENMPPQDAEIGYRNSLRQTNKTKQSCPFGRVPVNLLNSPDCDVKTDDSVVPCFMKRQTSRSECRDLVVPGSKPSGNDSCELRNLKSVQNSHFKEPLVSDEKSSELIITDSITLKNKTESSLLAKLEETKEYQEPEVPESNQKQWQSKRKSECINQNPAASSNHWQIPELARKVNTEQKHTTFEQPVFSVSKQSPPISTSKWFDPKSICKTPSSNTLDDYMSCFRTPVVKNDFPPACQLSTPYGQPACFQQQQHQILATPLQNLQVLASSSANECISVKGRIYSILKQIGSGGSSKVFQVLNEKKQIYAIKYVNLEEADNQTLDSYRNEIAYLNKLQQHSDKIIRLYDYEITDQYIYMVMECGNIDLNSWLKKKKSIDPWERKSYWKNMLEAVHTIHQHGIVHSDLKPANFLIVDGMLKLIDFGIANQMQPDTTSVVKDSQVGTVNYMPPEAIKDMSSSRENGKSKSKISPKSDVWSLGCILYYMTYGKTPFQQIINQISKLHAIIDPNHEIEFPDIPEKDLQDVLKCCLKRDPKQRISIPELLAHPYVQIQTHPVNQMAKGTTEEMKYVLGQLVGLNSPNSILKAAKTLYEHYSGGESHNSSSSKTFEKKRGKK

[3] = molecular target: Calcium/calmodulin-dependent protein kinase type 1D (Homo sapiens) (UniProt Q8IU85); experiment: CAMK1D SGC Tm panel (DSF); conditions: for ΔTm: Compound concentration 10.0 uM
Sequence of Calcium/calmodulin-dependent protein kinase type 1D (Homo sapiens) (Q8IU85 whole entry, looked up): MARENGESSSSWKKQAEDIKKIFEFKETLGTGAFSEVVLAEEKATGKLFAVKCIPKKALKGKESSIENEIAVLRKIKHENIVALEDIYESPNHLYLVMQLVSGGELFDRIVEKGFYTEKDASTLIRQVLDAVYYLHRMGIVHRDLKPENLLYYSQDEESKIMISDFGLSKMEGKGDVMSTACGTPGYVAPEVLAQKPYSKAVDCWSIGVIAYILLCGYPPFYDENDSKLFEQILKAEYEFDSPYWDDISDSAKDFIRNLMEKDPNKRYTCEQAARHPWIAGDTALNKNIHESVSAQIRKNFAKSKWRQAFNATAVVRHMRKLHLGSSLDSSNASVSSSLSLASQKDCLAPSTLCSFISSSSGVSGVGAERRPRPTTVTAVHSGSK

[4] = molecular target: Ephrin type-A receptor 4 (Homo sapiens) (UniProt P54764); experiment: EPHA4 SGC Tm panel (DSF); conditions: for ΔTm: Compound concentration 10.0 uM
Sequence of Ephrin type-A receptor 4 (Homo sapiens) (P54764 whole entry): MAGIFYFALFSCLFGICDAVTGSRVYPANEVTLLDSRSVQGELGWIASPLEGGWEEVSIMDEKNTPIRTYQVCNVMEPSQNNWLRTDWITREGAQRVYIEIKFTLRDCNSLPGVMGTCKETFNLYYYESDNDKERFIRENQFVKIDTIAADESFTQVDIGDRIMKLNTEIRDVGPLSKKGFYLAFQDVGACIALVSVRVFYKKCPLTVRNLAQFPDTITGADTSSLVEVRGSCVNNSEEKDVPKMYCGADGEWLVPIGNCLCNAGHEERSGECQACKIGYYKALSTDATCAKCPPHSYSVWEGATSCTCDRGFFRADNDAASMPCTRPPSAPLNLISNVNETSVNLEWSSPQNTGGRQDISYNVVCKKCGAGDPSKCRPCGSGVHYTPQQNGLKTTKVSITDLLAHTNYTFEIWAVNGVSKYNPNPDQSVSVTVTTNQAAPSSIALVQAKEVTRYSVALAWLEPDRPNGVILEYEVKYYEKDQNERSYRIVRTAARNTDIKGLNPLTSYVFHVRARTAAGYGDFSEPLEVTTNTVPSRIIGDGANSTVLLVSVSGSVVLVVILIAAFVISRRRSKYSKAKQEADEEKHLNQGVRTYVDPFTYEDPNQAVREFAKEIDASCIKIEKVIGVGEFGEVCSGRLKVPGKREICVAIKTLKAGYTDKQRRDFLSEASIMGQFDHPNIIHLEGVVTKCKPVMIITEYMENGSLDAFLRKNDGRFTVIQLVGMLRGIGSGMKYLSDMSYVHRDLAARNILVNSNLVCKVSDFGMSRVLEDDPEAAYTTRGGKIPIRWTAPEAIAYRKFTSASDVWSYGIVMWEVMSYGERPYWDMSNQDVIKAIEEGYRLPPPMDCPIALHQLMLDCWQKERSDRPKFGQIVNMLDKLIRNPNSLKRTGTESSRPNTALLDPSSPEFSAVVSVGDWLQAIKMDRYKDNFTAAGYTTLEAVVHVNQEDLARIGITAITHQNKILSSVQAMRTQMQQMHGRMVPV

[5] = molecular target: T3, D(4) dopamine receptor (Homo sapiens) (UniProt P21917); conditions: Compound concentration 10.0 uM
T3 sequence (whole entry): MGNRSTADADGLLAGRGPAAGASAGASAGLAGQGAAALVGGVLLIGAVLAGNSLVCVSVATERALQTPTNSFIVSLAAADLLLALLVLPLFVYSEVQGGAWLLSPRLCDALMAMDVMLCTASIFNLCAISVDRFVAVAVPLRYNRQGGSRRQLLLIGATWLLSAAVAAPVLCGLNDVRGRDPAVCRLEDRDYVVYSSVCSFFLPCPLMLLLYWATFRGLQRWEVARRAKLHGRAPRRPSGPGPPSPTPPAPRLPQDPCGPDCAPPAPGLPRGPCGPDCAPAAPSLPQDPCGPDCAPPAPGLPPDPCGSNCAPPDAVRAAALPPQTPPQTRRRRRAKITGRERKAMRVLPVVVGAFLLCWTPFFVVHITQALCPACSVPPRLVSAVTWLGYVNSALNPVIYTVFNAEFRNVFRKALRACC

[6] = molecular target: T4, Muscarinic acetylcholine receptor M2 (Homo sapiens) (UniProt P08172); conditions: Compound concentration 10.0 uM
T4 sequence (whole entry): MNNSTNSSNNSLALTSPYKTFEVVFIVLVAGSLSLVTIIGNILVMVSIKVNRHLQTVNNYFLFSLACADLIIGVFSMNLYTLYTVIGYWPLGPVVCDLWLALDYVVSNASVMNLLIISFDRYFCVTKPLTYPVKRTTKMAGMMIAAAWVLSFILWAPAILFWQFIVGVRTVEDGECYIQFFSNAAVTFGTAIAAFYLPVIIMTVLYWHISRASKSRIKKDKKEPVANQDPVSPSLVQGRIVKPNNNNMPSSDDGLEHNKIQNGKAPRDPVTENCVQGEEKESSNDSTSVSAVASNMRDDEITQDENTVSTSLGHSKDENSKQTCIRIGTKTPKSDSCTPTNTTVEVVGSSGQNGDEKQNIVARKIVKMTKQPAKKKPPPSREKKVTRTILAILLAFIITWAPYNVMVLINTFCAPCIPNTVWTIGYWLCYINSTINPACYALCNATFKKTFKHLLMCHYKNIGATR

SMILES	delta Tm Staurosporine positive control [1]	ΔTm [1]	delta Tm Staurosporine positive control [2]	ΔTm [2]	delta Tm Staurosporine positive control [3]	ΔTm [3]	delta Tm Staurosporine positive control [4]	ΔTm [4]	inhibition [5]	inhibition [6]
CCC[C@@H]1CNCc2c1[nH]c(=O)c(C#N)c2N1CCC2(CC1)CC2	9.38	-0.138	7.9	0.316	10.9	-0.415	6.68	-0.295	18.8%	2.48%
CCC[C@H]1CNCc2c1[nH]c(=O)c(C#N)c2N1CCC2(CC1)CC2	9.38	-0.0275	7.9	0.222	10.9	-0.751	6.68	-0.324	15.9%	-1.19%

Source: ChEMBL document CHEMBL5303765, “Data for DCP probe BAY-7081” (2023)
